Target: T1, Human LPA1 (Homo sapiens, UniProt Q92633)
T1 construct: the full-length cDNA for human LPA1 was obtained by PCR of the reverse transcription reaction; expressed in transfected cells
Assay: LPA1 calcium flux assay
Type: cell-based
Details: CHO cells expressing human LPA1, stimulated with 10 nM LPA; read-out: LPA1 Ca^2+ flux
Procedure: A 1.1 kb cDNA encoding the human LPA1 receptor was cloned from human lung. Human lung RNA (Clontech Laboratories, Inc. USA) was reverse transcribed using the RETROSCRIPT® kit (Ambion, Inc.) and the full-length cDNA for human LPA1 was obtained by PCR of the reverse transcription reaction. The nucleotide sequence of the cloned human LPA1 was determined by sequencing and confirmed to be identical to the published human LPA1 sequence (An et al., Biochem. Biophys. Res. Commun. 231:619 (1997). The cDNA was cloned into the pcDNA5/FRT expression plasmid and transfected in CHO cells using Lipofectamine 2000 (Invitrogen Corp., USA). Clones stably expressing human LPA1 were selected using hygromycin and identified as cells that show Ca-influx in response to LPA.
Human LPA1 or LPA3 expressing CHO cells are seeded at 20,000-45,000 cells per well in a 96-well poly-D-lysine coated plate one or two days before the assay. Prior to the assay, the cells are washed once with PBS and then cultured in serum-free media overnight. On the day of the assay, a calcium indicator dye (Calcium 4, Molecular Devices) in assay buffer (HBSS with Ca^2+ and Mg^2+ and containing 20 mM Hepes and 0.3% fatty-acid free human serum albumin) is added to each well and incubation continued for 1 hour at 37° C. 10 μl of test compounds in 2.5% DMSO are added to the cells and incubation continued at room temperature for 30 minutes. Cells are the stimulated by the addition of 10 nM LPA and intracellular Ca^2+ measured using the FLEXSTATION® 3 (Molecular Devices). IC50s are determined using Graphpad prism analysis of drug titration curves.

T1 sequence (Q92633 whole entry): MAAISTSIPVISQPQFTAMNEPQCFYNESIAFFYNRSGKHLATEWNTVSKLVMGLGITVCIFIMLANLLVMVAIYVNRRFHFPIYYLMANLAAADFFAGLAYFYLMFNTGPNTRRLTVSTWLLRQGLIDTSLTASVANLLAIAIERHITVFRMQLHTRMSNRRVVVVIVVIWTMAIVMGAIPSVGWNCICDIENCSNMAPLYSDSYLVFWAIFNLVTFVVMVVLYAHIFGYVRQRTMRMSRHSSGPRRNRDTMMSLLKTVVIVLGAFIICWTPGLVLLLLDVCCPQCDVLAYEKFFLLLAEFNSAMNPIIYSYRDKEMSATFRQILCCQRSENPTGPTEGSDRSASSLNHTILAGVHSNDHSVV

| SMILES | IC50 [µM] |
| --- | --- |
| O=C(O)C1(c2ccc(-c3ccc(-c4cnccc4C(O)CCCc4ccccc4)cc3)cc2)CC1 (centres unmarked) [Compound 1-17, 1-{4′-[4-(1-hydroxy-4-phenyl-butyl)-pyridin-3-yl]-biphenyl-4-yl}-cyclopropanecarboxylic acid] | < 0.3 |
| O=C(O)C1(c2ccc(-c3ccc(-c4sccc4C(O)CCCc4ccccc4)cc3)cc2)CC1 (centres unmarked) [Compound 1-18, 1-{4′-[3-(1-hydroxy-4-phenyl-butyl)-thiophen-2-yl]-biphenyl-4-yl}-cyclopropanecarboxylic acid] | < 0.3 |
| CCn1ncc(-c2ccc(-c3ccc(C4(C(=O)O)CC4)cc3)cc2)c1C(O)CCCc1ccccc1 (centres unmarked) [Compound 1-23, 1-{4′-[1-ethyl-5-(1-hydroxy-4-phenyl-butyl)-1H-pyrazol-4-yl]-biphenyl-4-yl}-cyclopropanecarboxylic acid] | < 0.3 |
| O=C(O)C1(c2ccc(-c3ccc(-c4sccc4C(O)CCCc4ccccc4)cc3)cc2)CC1 (single isomer, unassigned) [Compound 1-26, 1-{4′-[3-(1-hydroxy-4-phenyl-butyl)-thiophen-2-yl]-biphenyl-4-yl}-cyclopropanecarboxylic acid] | < 0.3 |
| O=C(O)C1(c2ccc(-c3ccc(-c4ccncc4C(O)CCCc4ccccc4)cc3)cc2)CC1 (centres unmarked) [Compound 1-9, 1-{4′-[3-(1-Hydroxy-4-phenyl-butyl)-pyridin-4-yl]-biphenyl-4-yl}-cyclopropanecarboxylic acid] | < 0.3 |
| O=C(O)CC1(c2ccc(-c3ccc(-c4ncccc4C(O)CCCc4ccccc4)cc3)cc2)CC1 (centres unmarked) [Compound 1-12, (1-{4′-[3-(1-hydroxy-4-phenyl-butyl)-pyridin-2-yl]-biphenyl-4-yl}-cyclopropyl)-acetic acid] | < 0.3 |
| CC(CCc1ccc(Cl)cc1)Nc1c(-c2ccc(-c3ccc(C4(C(=O)O)CC4)cc3)cc2)cnn1C (centres unmarked) [Compound 1-21, 1-(4′-{5-[3-(4-chloro-phenyl)-1-methyl-propylamino]-1-methyl-1H-pyrazol-4-yl}-biphenyl-4-yl)-cyclopropanecarboxylic acid] | < 0.3 |
| O=C(O)C1(c2ccc(-c3ccc(-c4ccsc4C(O)CCCc4ccccc4)cc3)cc2)CC1 (centres unmarked) [Compound 1-6, 1-{4′-[2-(1-hydroxy-4-phenyl-butyl)-thiophen-3-yl]-biphenyl-4-yl}-cyclopropanecarboxylic acid] | < 0.3 |
| C[C@@H](OC(=O)Nc1ncoc1-c1ccc(-c2ccc(C3(C(=O)O)CC3)cc2)cc1)c1ccccc1 [Compound 1-4, 1-{4′-[4-((R)-1-phenyl-ethoxycarbonylamino)-oxazol-5-yl]-biphenyl-4-yl}-cyclopropanecarboxylic acid] | < 0.3 |
| O=C(O)CC1(c2ccc(-c3ccc(-c4ccsc4C(O)CCCc4ccccc4)cc3)cc2)CC1 (centres unmarked) [Compound 1-13, (1-{4′-[2-(1-hydroxy-4-phenyl-butyl)-thiophen-3-yl]-biphenyl-4-yl}-cyclopropyl)-acetic acid] | < 0.3 |
| Cn1ncc(-c2ccc(-c3ccc(C4(CC(=O)O)CC4)cc3)cc2)c1C(O)CCCc1ccccc1 (centres unmarked) [Compound 1-10, (1-{4′-[5-(1-hydroxy-4-phenyl-butyl)-1-methyl-1H-pyrazol-4-yl]-biphenyl-4-yl}-cyclopropyl)-acetic acid] | < 0.3 |
| O=C(O)C1(c2ccc(-c3ccc(-c4ncccc4C(O)CCCc4ccccc4)cc3)cc2)CC1 (centres unmarked) [Compound 1-5, 1-{4′-[3-(1-hydroxy-4-phenyl-butyl)-pyridin-2-yl]-biphenyl-4-yl}-cyclopropanecarboxylic acid] | < 0.3 |

The remaining lines, values ahead:

| IC50 [µM] | SMILES |
| --- | --- |
| < 0.3 | O=C(O)C1(c2ccc(-c3ccc(-c4sccc4C(O)CCCc4ccccc4)cc3)cc2)CC1 (single isomer, unassigned) [Compound 1-27, 1-{4′-[3-(1-hydroxy-4-phenyl-butyl)-thiophen-2-yl]-biphenyl-4-yl}-cyclopropanecarboxylic acid] |
| < 0.3 | Cn1ncc(-c2ccc(-c3ccc(C4(C(=O)O)CC4)cc3)cc2)c1C(O)CCCc1ccccc1 (centres unmarked) [Compound 1-11, 1-{4′-[5-(1-hydroxy-4-phenyl-butyl)-1-methyl-1H-pyrazol-4-yl]-biphenyl-4-yl}-cyclopropanecarboxylic acid] |
| < 0.3 | O=C(O)C1(c2ccc(-c3ccc(-c4ccccc4C(O)CCCc4ccccc4)cc3)cc2)CC1 (centres unmarked) [Compound 1-7, 1-[2-(1-hydroxy-4-phenyl-butyl)-[1,1′;4′,1″]terphenyl-4″-yl]-cyclopropanecarboxylic acid] |
| < 0.3 | O=C(O)CC1(c2ccc(-c3ccc(-c4sccc4C(O)CCCc4ccccc4)cc3)cc2)CC1 (centres unmarked) [Compound 1-19, (1-{4′-[3-(1-hydroxy-4-phenyl-butyl)-thiophen-2-yl]-biphenyl-4-yl}-cyclopropyl)-acetic acid] |
| < 0.3 | CCn1ncc(-c2ccc(-c3ccc(C4(CC(=O)O)CC4)cc3)cc2)c1C(O)CCCc1ccccc1 (centres unmarked) [Compound 1-24, (1-{4′-[1-ethyl-5-(1-hydroxy-4-phenyl-butyl)-1H-pyrazol-4-yl]-biphenyl-4-yl}-cyclopropyl)-acetic acid] |
| 1 to 10 | O=C(O)C1(c2ccc(-c3ccc(-c4ncc5ccccc5c4C(O)CCCc4ccccc4)cc3)cc2)CC1 (centres unmarked) [Compound 1-16, 1-{4′-[4-(1-hydroxy-4-phenyl-butyl)-isoquinolin-3-yl]-biphenyl-4-yl}-cyclopropanecarboxylic acid] |
| < 0.3 | Cn1ncc(-c2ccc(-c3ccc(C4(C(=O)O)CC4)cc3)cc2)c1C(O)c1cn(Cc2ccccc2)nn1 (centres unmarked) [Compound 1-22, 1-(4′-{5-[(1-benzyl-1H-[1,2,3]triazol-4-yl)-hydroxy-methyl]-1-methyl-1H-pyrazol-4-yl}-biphenyl-4-yl)-cyclopropanecarboxylic acid] |
| < 0.3 | Cn1ncc(-c2ccc(-c3ccc(C4(C(=O)O)CC4)cc3)cc2)c1Nc1cccc(-c2ccccc2)n1 [Compound 1-20, 1-{4′-[1-methyl-5-(6-phenyl-pyridin-2-ylamino)-1H-pyrazol-4-yl]-biphenyl-4-yl}-cyclopropanecarboxylic acid] |
| < 0.3 | O=C(O)CC1(c2ccc(-c3ccc(-c4cscc4C(O)CCCc4ccccc4)cc3)cc2)CC1 (centres unmarked) [Compound 1-14, (1-{4′-[4-(1-hydroxy-4-phenyl-butyl)-thiophen-3-yl]-biphenyl-4-yl}-cyclopropyl)-acetic acid] |
| 1 to 10 | Cn1ncc(-c2ccc(-c3ccc(C4(C(=O)O)CC4)cc3)cc2)c1NCc1cnc(-c2ccccc2)s1 [Compound 1-25, 1-(4′-{1-methyl-5-[(2-phenyl-thiazol-5-ylmethyl)-amino]-1H-pyrazol-4-yl}-biphenyl-4-yl)-cyclopropanecarboxylic acid] |
| < 0.3 | O=C(O)C1(c2ccc(-c3ccc(-c4cscc4C(O)CCCc4ccccc4)cc3)cc2)CC1 (centres unmarked) [Compound 1-15, 1-{4′-[4-(1-hydroxy-4-phenyl-butyl)-thiophen-3-yl]-biphenyl-4-yl}-cyclopropanecarboxylic acid] |
| < 0.3 | C[C@@H](OC(=O)Nc1ccccc1-c1ccc(-c2ccc(C3(C(=O)O)CC3)cc2)cc1)c1ccccc1 [Compound 1-2, 1-[2″-((R)-1-phenyl-ethoxycarbonylamino)-[1,1′;4′,1″]terphenyl-4-yl]-cyclopropanecarboxylic acid] |
| 0.3 to 1 | C[C@@H](OC(=O)Nc1cnccc1-c1ccc(-c2ccc(C3(C(=O)O)CC3)cc2)cc1)c1ccccc1 [Compound 1-3, 1-{4′-[3-((R)-1-phenyl-ethoxycarbonylamino)-pyridin-4-yl]-biphenyl-4-yl}-cyclopropanecarboxylic acid] |
| 0.3 to 1 | O=C(O)CC1(c2ccc(-c3ccc(-c4ccncc4C(O)CCCc4ccccc4)cc3)cc2)CC1 (centres unmarked) [Compound 1-8, (1-{4′-[3-(1-hydroxy-4-phenyl-butyl)-pyridin-4-yl]-biphenyl-4-yl}-cyclopropyl)-acetic acid] |

— US9272990B2, “Lysophosphatidic acid receptor antagonists and their use in the treatment fibrosis” (AMIRA PHARMACEUTICALS, INC., priority 2010, dated 2016)
